Values joined by “and” are separate entries in the source; they are usually repeats but may differ in a detail not shown here. Equal entries are not always repeated.
Key:
[1] = biological target: T1, GCase (Mus musculus, UniProt P17439); experiment: GCase enhancement in tissues of orally dosed mice; assay type: in vivo, mice (C57BL/6); conditions: for GCase increase: nine doses over 2 weeks, 24-hour washout
T1 construct: Liver, spleen, lung, and brain tissues were removed; from tissue; host or cells: brain, spleen, liver, lung of C57BL/6 mice
T1 sequence (P17439 20-515): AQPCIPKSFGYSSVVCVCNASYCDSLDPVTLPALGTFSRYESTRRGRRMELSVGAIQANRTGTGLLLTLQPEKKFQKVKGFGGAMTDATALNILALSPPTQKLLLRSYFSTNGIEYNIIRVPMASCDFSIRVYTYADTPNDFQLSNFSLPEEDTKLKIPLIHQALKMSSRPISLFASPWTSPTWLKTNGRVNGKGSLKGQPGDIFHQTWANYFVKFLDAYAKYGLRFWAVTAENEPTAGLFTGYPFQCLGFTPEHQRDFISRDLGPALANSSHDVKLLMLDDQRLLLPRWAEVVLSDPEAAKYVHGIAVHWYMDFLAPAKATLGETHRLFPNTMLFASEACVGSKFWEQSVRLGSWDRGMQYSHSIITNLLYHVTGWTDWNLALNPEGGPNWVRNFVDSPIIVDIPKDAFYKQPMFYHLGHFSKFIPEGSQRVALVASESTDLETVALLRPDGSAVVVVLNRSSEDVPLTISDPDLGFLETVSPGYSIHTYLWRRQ
Method: (§1) The ability of orally administered test compounds (the hydrochloride salt form of Compound A and Compound B) to elevate GCase levels as compared to reference compound, IFG-tartrate, was assessed in mice. […] Seven animals were used per dose. The dosing solutions were prepared in water. Compounds were administered over 2 weeks as follows: week 1, Mon-Fri (On), Sat-Sun (Off); week 2, Mon-Thu (On); necropsy on Friday. Thus, a total of 9 doses (dosing solutions prepared fresh every day) were given to each mouse, with a 24-hour washout between the last dose and necropsy.
(§2) Plasma was collected by spinning blood at 2700 g for 10 minutes at 4° C. Liver, spleen, lung, and brain tissues were removed, washed in cold PBS, blotted dry, flash frozen on dry ice, and stored at −80° C. until analysis. GCase levels were measured by homogenizing approximately 50 mg tissue in 500 μL McIlvane (MI) buffer (100 mM sodium citrate, 200 mM sodium phosphate dibasic, 0.25% sodium taurocholate, and 0.1% Triton X-100, pH 5.2) at pH 5.2 for 3-5 seconds on ice with a micro homogenizer. Homogenates were then incubated at room temperature without and with 2.5 mM conduritol-B-epoxide (CBE) for 30 min. Finally, 3.7 mM 4-methylumbeliferryl-β-glucoside (4-MUG) substrate was added and incubated at 37° C. for 60 min. Reactions were stopped by addition of 0.4 M glycine, pH 10.6. Fluorescence was measured on a plate reader for 1 sec/well using 355 nm excitation and 460 nm emission. Total protein was determined in lysates using the MicroBCA kit according to the manufacturer's instructions. A 4-methylumbelliferone (4-MU) standard curve ranging from 1.0 nM to 50 μM was run in parallel for conversion of raw fluorescence data to absolute GCase activity (in the presence and absence of CBE) and expressed as nanomoles of 4-MU released per milligram of protein per hour (nmol/mg protein/hr). GCase levels and protein levels were calculated using Microsoft Excel (Redmond, Wash.) and GraphPad Prism version 4.02.

[2] = Compound concentration in brain, spleen and plasma samples of GCase enhancement study; assay type: in vivo, mice (C57BL/6); conditions: nine doses; for Concentration: 24 hours after last dose
Method: as §1, §2

[3] = Blood brain barrier penetration after oral administration to mice; assay type: in vivo, mice (C57BL/6); conditions: single 30 mg/kg (free base equivalent) p.o. dose, FIGS. 1A-C
Method: For this purpose, 8-week old wild-type male mice (C57BL/6) were administered a single 30 mg/kg (free base equivalent) p.o. dose of reference or test compound by gavage (n=3 mice per time point). Dosing solutions were prepared in water. After dosing, mice were euthanized with CO2 at the following time points: 0-, 0.5-, 1-, and 4-hour post-dose. […] Similarly, brains were collected from each mouse. Plasma was derived by spinning whole blood at 2700 g for 10 minutes at 4° C. followed by storage on dry ice. Whole brains were washed in cold PBS to remove contaminating blood, blotted dry, flash frozen on dry ice, and ultimately stored at −80° C. until analysis. To prepare brain samples for analysis, 50-100 mg of tissue was homogenized in […]. Samples were then clarified by centrifugation. Next, 25 μl of the brain homogenate supernatant or 25 μl of plasma were combined with 25 μl of acetonitrile:water (95/5). […] Between 20 and 30 μl sample was injected for analysis. […] When Compound B was analyzed, Compound A was used as internal standard (150.1/130.1). For calculating drug concentrations, raw data for plasma (ng/mL) and brain (ng/g) was converted to nM using the molecular weight of respective compounds and assuming 1 g of tissue is equivalent to 1 mL volume. Concentration as a function of time was plotted in GraphPad Prism version 4.02.

[4] = biological target: T2, lysosomal GCase (Homo sapiens, UniProt P04062); experiment: In situ washout assay in fibroblasts (recovery of lysosomal GCase activity after compound removal); assay type: cell-based; conditions: fibroblasts treated at IC90 for 16-24 hours, then drug-free medium; single exponential fit
T2 construct: assayed in situ using fibroblasts established from a normal subject; endogenous in cells; host or cells: fibroblasts from a normal subject
T2 sequence (P04062 40-536): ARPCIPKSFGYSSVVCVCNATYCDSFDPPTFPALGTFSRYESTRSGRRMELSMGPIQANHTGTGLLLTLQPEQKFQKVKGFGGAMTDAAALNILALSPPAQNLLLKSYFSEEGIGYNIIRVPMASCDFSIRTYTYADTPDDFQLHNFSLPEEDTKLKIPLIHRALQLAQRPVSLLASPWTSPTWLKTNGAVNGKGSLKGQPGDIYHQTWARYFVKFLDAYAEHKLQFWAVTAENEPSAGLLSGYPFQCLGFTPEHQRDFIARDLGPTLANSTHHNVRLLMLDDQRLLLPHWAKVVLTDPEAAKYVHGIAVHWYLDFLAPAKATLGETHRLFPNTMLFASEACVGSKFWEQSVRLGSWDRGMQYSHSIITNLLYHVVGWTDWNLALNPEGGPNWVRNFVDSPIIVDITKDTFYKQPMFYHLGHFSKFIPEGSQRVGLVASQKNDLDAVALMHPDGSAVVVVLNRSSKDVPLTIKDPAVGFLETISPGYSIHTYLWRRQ
Method: Cells seeded in 48-well plates were incubated with the indicated concentrations of compound for 16-24 hours. For the dose-response assays, cells were incubated with the in situ substrate 5-(pentafluorobenzoylamino)fluorescein di-β-D-glucopyranoside (PFBFDβGlu) for 1 hour and subsequently lysed to determine the extent of substrate hydrolysis in the presence of compound. […] Inhibition was determined as the ratio of activity in the presence of compound to that in the absence of compound. […] Cells were washed extensively and incubated in drug-free medium to allow net compound efflux from cells. Cells were then tested for lysosomal GCase activity at 2 hour intervals over a total period of 8 hours following compound removal. The increase in activity over time was fitted with a single exponential function to determine the compound's washout time.

[5] = biological target: T3, GCase (Homo sapiens, UniProt P04062); experiment: Concentration-dependent increase in GCase activity (EC50, Emax); assay type: cell-based; conditions: result in words
T3 sequence (P04062 40-536): T2 sequence (P04062 40-536)

[6] = brain, 10 mg/kg (free base equivalent) p.o.
[7] = spleen, 10 mg/kg (free base equivalent) p.o.
[8] = mice, nine p.o. doses over 2 weeks, result in words

O[C@@H]1[C@H](CF)CNC[C@H]1O [Compound A, (3R,4R,5R)-5-(fluoromethyl)piperidine-3,4-diol]
GCase increase [1, 6]: 2.5 -fold
GCase increase ([1]; brain, 100 mg/kg (free base equivalent) p.o.): 3.5 -fold
GCase increase [1, 7]: 1.9 -fold
GCase increase ([1]; spleen, 100 mg/kg (free base equivalent) p.o.): 2.8 -fold
Concentration in GCase assays after dilution (value in parenthesis) ([2]; brain sample, 10 mg/kg p.o.): 0.5 nM
Concentration in GCase assays after dilution (value in parenthesis) ([2]; brain sample, 100 mg/kg p.o.): 3 nM
Concentration in GCase assays after dilution (value in parenthesis) ([2]; spleen sample, 10 mg/kg p.o.): 0.3 nM
Concentration in GCase assays after dilution (value in parenthesis) ([2]; spleen sample, 100 mg/kg p.o.): 1.1 nM
blood brain barrier crossing compared to IFG [3]: crossed the blood brain barrier more readily as compared to IFG

Cl.O[C@@H]1[C@H](CF)CNC[C@H]1O [Compound A-HCl, (3R,4R,5R)-5-(fluoromethyl)piperidine-3,4-diol hydrochloride]
In Situ Washout [4]: 6.6 ± 0.12 h
GCase enhancement at lower doses compared to IFG-tartrate [1, 8]: unexpectedly greater than that observed with IFG-tartrate even when far lower doses
GCase enhancement in brain, spleen, liver and lung compared to control or IFG-tartrate [1, 8]: statistically significant greater GCase enhancement in brain, spleen, liver and lung as compared to mice administered control or IFG-tartrate
effect on GCase activity [5]: concentration-dependent increase in GCase activity
enhancement of enzyme activity compared to IFG-tartrate [5]: enhanced enzyme activity to the same maximum level at much lower concentration
melting point: 200 to 202 °C

OC[C@H]1CNC[C@@H](O)[C@@H]1O [IFG, (3R,4R,5R)-5-(hydroxymethyl)-3,4-piperidinediol]
GCase increase [1, 6]: 1.5 -fold
GCase increase ([1]; brain, 100 mg/kg (free base equivalent) p.o., 100 mg/kg): 2.2 -fold and 2.1 -fold
GCase increase [1, 7]: 1.6 -fold
GCase increase ([1]; spleen, 100 mg/kg (free base equivalent) p.o., 100 mg/kg): 1.9 -fold and 2.0 -fold
Concentration in GCase assays after dilution (value in parenthesis) ([2]; brain sample, 10 mg/kg p.o.): 0.2 nM
Concentration in GCase assays after dilution (value in parenthesis) ([2]; brain sample, 100 mg/kg p.o., 100 mg/kg): 0.7 nM and 1.1 nM
Concentration ([2]; brain, 10 mg/kg p.o.): 49 ± 2.4 nM
Concentration ([2]; brain, 100 mg/kg p.o., 100 mg/kg): 182 ± 13 nM and 287 ± 74 nM
Concentration ([2]; plasma, 10 mg/kg p.o.): 67 ± 10 nM
Concentration in GCase assays after dilution (value in parenthesis) ([2]; spleen sample, 10 mg/kg p.o.): 0.5 nM
Concentration in GCase assays after dilution (value in parenthesis) ([2]; spleen sample, 100 mg/kg p.o., 100 mg/kg): 2.6 nM and 4.2 nM
Concentration ([2]; spleen, 10 mg/kg p.o.): 150 ± 12 nM
Concentration ([2]; spleen, 100 mg/kg p.o., 100 mg/kg): 711 ± 100 nM and 1139 ± 220 nM

Reference: patent US8940766B2, “Methods for preventing and/or treating lysosomal storage disorders” (Amicus Therapeutics, Inc., priority 2009, dated 2015)
